Among the test systems are LXFL 529 NSCLC; KM20L2 colon; RXF-631 renal; MCF7 breast; T-47D breast; BT-549 breast; PC-3 prostate; MDA-N; NCI/ADR-RES ovarian.
Experiment in all cases: NCI-60 cell line screen, 48 h

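Results reflect a 48-hour exposure of cells in 96-well plates to compound at five concentrations. TGI denotes the concentration required for complete inhibition of growth.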

`CCCCC(C(=O)C(=O)Nc1ccc(C)cc1C)C(=O)C(C)C` (stereo not given): the TGI in the assay on LXFL 529 NSCLC, with KM20L2 colon and with RXF-631 renal was over 100 µM each time.

As to `NC1=NN(c2ccccc2)C(=O)C1C(=O)C(=O)Nc1ccc(Cl)cc1` (stereo not given), the TGI in the assay on LXFL 529 NSCLC, in the assay with KM20L2 colon and in the assay on RXF-631 renal was over 100 µM in each case.

`Cc1cc(=O)oc2c(C3=NN(C=O)C(c4ccccc4)C3)c(O)ccc12` (stereo not given): the TGI in the assay on LXFL 529 NSCLC is over 100 µM; in the assay on MCF7 breast, over 95.5 µM; with T-47D breast it was over 100 µM; in the assay on KM20L2 colon it was over 100 µM; in the assay on BT-549 breast it was over 100 µM; in the assay on PC-3 prostate it was over 100 µM. The TGI in the assay with MDA-N, with NCI/ADR-RES ovarian and in the assay on RXF-631 renal was over 100 µM in each case.

Values taken from PubChem BioAssay (NCI).
